Measurements reported in the CheMixHub viscosity set.

Assay: xn = mol fraction of the nth substance listed

C[C@H](CCC(=O)[O-])[C@H]1CC[C@H]2[C@@H]3[C@H](O)C[C@@H]4C[C@H](O)CC[C@]4(C)[C@H]3C[C@H](O)[C@]12C.[Na+] + O
viscosity [mPa·s], 101 kPa
Settings	x1 = 4.223e-05	x1 = 8.385e-05	x1 = 0.0001682	x1 = 0.0003376	x1 = 0.0004225	x1 = 0.0005082	x1 = 0.0006801	x1 = 0.0008535
293.15 K	–	–	–	–	–	–	1.082	1.105
298.15 K	–	0.8984	–	0.9231	–	0.9405	0.9598	0.9782
303.15 K	0.801	0.8044	0.8115	0.8262	0.8337	–	0.8579	0.875
308.15 K	–	0.7264	0.7329	0.7454	0.7527	0.7593	0.774	0.7887
313.15 K	–	–	–	0.6763	0.6826	–	0.7016	0.7154

C[NH2+]CCO.O=C([O-])c1ccccc1O + O
100 kPa, x2 = 0.143
Settings	viscosity [mPa·s]
298 K	357.8
303 K	249.1
313 K	128.2
323 K	72.71

NC(N)=S + O
viscosity [mPa·s], 100 kPa
Settings	293.15 K	298.15 K	303.15 K	308.15 K	313.15 K
x1 = 0.00045	1.01	0.907	0.817	0.735	0.668
x1 = 0.0009	1.019	0.916	0.823	0.747	0.677
x1 = 0.0013	1.029	0.935	0.847	0.763	0.702

NCCN1CCNCC1 + O
101.3 kPa
Settings	viscosity [mPa·s]
298 K, x1 = 0.00152	0.92
298 K, x1 = 0.00275	0.95
298 K, x1 = 0.00774	1.11
298 K, x1 = 0.0161	1.38
298 K, x1 = 0.0255	1.82
303 K, x1 = 0.00152	0.87
303 K, x1 = 0.00275	0.89
303 K, x1 = 0.00774	1
303 K, x1 = 0.0161	1.25
303 K, x1 = 0.0255	1.66
303.2 K, x1 = 0.015	1.241
303.2 K, x1 = 0.024	1.651
303.2 K, x1 = 0.034	2.17
303.2 K, x1 = 0.044	2.861
303.2 K, x1 = 0.056	3.918
303.2 K, x1 = 0.07	4.722
303.2 K, x1 = 0.085	5.556
313 K, x1 = 0.00152	0.74
313 K, x1 = 0.00275	0.78
313 K, x1 = 0.00774	0.85
313 K, x1 = 0.0161	1.04
313 K, x1 = 0.0255	1.32
313.2 K, x1 = 0.015	1.001
313.2 K, x1 = 0.024	1.312
313.2 K, x1 = 0.034	1.589
313.2 K, x1 = 0.044	2.074
313.2 K, x1 = 0.056	2.839
313.2 K, x1 = 0.07	3.558
313.2 K, x1 = 0.085	4.367
323 K, x1 = 0.00152	0.6
323 K, x1 = 0.00275	0.61
323 K, x1 = 0.00774	0.69
323 K, x1 = 0.0161	0.83
323 K, x1 = 0.0255	1.03

NCCNCCN + O
viscosity [mPa·s], 101 kPa
Settings	293.15 K	298.15 K	303.15 K	313.15 K	323.15 K
x1 = 0.0425	–	2.44	2.06	1.55	1.23
x1 = 0.0565	–	–	–	–	1.615
x1 = 0.0568	–	3.46	2.88	2.07	1.6
x1 = 0.1	11.17	–	7.2	4.78	3.41
x1 = 0.1999	48.86	–	24.8	14.08	8.54
x1 = 0.2999	61.11	–	30.19	16.63	10.2
x1 = 0.3997	44.08	–	23.49	13.62	8.35
x1 = 0.4997	29.78	–	16.66	10.31	6.79
x1 = 0.5997	20.36	–	12.11	7.77	5.28
x1 = 0.6996	14.64	–	9.24	6.17	4.22
x1 = 0.7992	10.95	–	–	4.9	3.55
x1 = 0.8073	–	–	–	–	3.445
x1 = 0.8954	8.515	–	–	–	–
x1 = 0.8989	8.48	–	5.52	4.11	3.03
